Data: patent publication US20020052491A1, “Method for the production of 2-chloro-2' -deoxyadenosine (cladribine) and its 3,5-di-O-p-toluoyl derivative” (priority 1999, published 2002)

Columns and labels:
[1] = tested on: Non-Hodgkin's lymphoma; details: 50% growth inhibition, read-out: IC50 (nmol/L)**; cited from earlier work
[2] = tested on: Peripheral lymphocytes; details: cited from earlier work
[3] = tested on: Epstein Barr B lymphoblastoid cell lines; experiment: in vitro sensitivity, Epstein Barr B lymphoblastoid cell lines; assay type: cell-based; details: 50% growth inhibition, no source mark printed, read-out: IC50 (nmol/L)**
From the text: (§1) The in vitro effect of cladribine (2-CdA) has been studied on a number of cell lines, showing different degrees of sensitivity, represented by the IC50 value (concentration required to inhibit 50% of growth) on a case-by-case basis.

[4] = tested on: human melanoma cell lines; details: some human melanoma cell lines; cited from earlier work
[5] = tested on: Normal bone marrow; details: cited from earlier work
[6] = tested on: Erythroid progenitor cells; details: decreases as maturation state rises; cited from earlier work
[7] = tested on: T lymphocyte colony forming cells; details: cited from earlier work
[8] = tested on: DAUDI cell line; experiment: in vitro sensitivity, DAUDI cell line; assay type: cell-based; details: Homo sapiens, 50% growth inhibition, Data Bio Sidus, read-out: IC50 (nmol/L)**
From the text: as §1

[9] = tested on: Acute myelogenous leukemia; details: 50% growth inhibition, read-out: IC50 (nmol/L)**; cited from earlier work
[10] = tested on: Mature erythroid colony forming units (mBFU-E); details: cited from earlier work
[11] = tested on: myeloid progenitor cell; details: dose-dependent basis; cited from earlier work
[12] = tested on: B cells; details: 50% growth inhibition, read-out: IC50 (nmol/L)**; cited from earlier work
[13] = tested on: Chronic lymphocytic leukemia; details: 50% growth inhibition, read-out: IC50 (nmol/L)**; cited from earlier work
[14] = tested on: myeloid cells; details: cited from earlier work
[15] = tested on: neuroblastoma cell line; details: cited from earlier work
[16] = tested on: cell lines of bone tumors; details: in vitro; cited from earlier work
[17] = tested on: Acute lymphoblastic leukemia; details: drug concentration required to inhibit 50% of growth, read-out: IC50 (nmol/L)**; cited from earlier work
[18] = tested on: dividing and non-dividing cells; details: cited from earlier work
[19] = tested on: granulocyte-macrophage colony forming units and erythrocyte burst forming units; details: more immature progenitors (granulocyte-macrophage colony forming units and erythrocyte burst forming units); approximately; cited from earlier work
[20] = tested on: Multiple myeloma cells; details: cited from earlier work
[21] = tested on: lymphoblastoid leukemia cells; details: 5 nmol/L; cited from earlier work
[22] = tested on: T cells; details: 50% growth inhibition, read-out: IC50 (nmol/L)**; cited from earlier work
[23] = tested on: erythroid colony forming cells (CFU-E); details: cited from earlier work
[24] = tested on: Hairy cell leukemia; details: 50% growth inhibition, read-out: IC50 (nmol/L)**; cited from earlier work
[25] = H-9 proton; cited from earlier work

For `Nc1nc(Cl)nc2c1ncn2[C@H]1C[C@H](O)[C@@H](CO)O1` [Cladribine, 2-chloro-2′-deoxyadenosine], the IC50 [1] is listed as 87 nmol/L, the “viability of peripheral lymphocytes” value ([2]; 100 nmol/l during 24 hours, followed by washing) is listed as “retain viability” and the cells die ([2]; seven-day incubation with 8 nmol/L) is listed as 60%. The IC50 [3] was 200 nmol/L, the IC37 [4] was 12 to 22 nmol/L and the “granulocyte and macrophage colony formation” value ([5]; 5 nmol/L, normal bone marrow) was “no effect”. For the same molecule, the IC50 ([5]; Normal bone marrow, 50% growth inhibition, read-out: IC50 (nmol/L)**) was 15 nmol/L, the “sensitivity of erythroid progenitor cells” value [6] was “dose-dependent sensitivity” and the “concentration needed for a complete inhibition of lymphoid colony formation” value ([7]; complete inhibition) was 1280 nmol/L. For the same molecule, the “T lymphocyte colony forming cells” value ([7]; dose-dependent basis) was “inhibits”, the IC50 [8] was 210 nmol/L and the IC50 [9] was 20 nmol/L. The IC50 [10] was 38 nM, the “myeloid progenitor cell growth” value [11] was “inhibits” and the IC50 [12] was 6 to 67 nmol/L. For the same molecule, the IC50 [13] was 39 nmol/L, the IC50 [14] was 5 to 70 nM and the IC50 [15] was 60 nM. For the same molecule, the “activity on cell lines of bone tumors” value [16] was “low activity”, the IC50 [17] was 34 nmol/L and the “activity in dividing and non-dividing cells” value [18] was “active”. For the same molecule, the IC50 [19] was 16 to 20 nM, the IC50 ([20]; Multiple myeloma, 50% growth inhibition, read-out: IC50 (nmol/L)**) was 1750 nmol/L and the “activity on multiple myeloma cells” value ([20]; in vitro) was “low activity”. For the same molecule, the thymidine uptake [21] was “inhibits”, the IC50 [22] was 3 to 338 nmol/L and the IC50 [23] was 56 nM. For the same molecule, the IC50 [24] was 31 nmol/L.

For `Nc1ncnc2nc[nH]c12` [adenine], the pKa [25] is given as 9.80.
